According to US6737383B1, “Herbicidal oxadiazolidines” (priority 1999, dated 2004):

Key:
blackgrass = experiment: Test B pre/postemergence blackgrass; type: in vivo, Alopecurus myosuroides
Method in brief: (§1)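 Response is a visual 0-to-10 score relative to untreated plants, where 0 means no effect and 10 means complete control, taken twelve to sixteen days after application. Treatments went onto soil at planting and onto foliage of 1- to 4-leaf plants, using a surfactant-containing non-phytotoxic solvent.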

surinam grass = experiment: Test B pre/postemergence surinam grass; type: in vivo, Brachiaria decumbens
Method in brief: as §1

cocklebur = experiment: Test B pre/postemergence cocklebur; type: in vivo, Xanthium strumarium
Method in brief: as §1

corn = experiment: Test B pre/postemergence corn; type: in vivo, Zea mays
Method in brief: as §1

crabgrass = experiment: Test B pre/postemergence crabgrass; type: in vivo, Digitaria sanguinalis
Method in brief: as §1

giant foxtail = experiment: Test B pre/postemergence giant foxtail; type: in vivo, Setaria faberii
Method in brief: as §1

pigweed = experiment: Test B pre/postemergence pigweed; type: in vivo, Amaranthus retroflexus
Method in brief: as §1

rape = experiment: Test B pre/postemergence rape; type: in vivo, Brassica napus
Method in brief: as §1

soybean = experiment: Test B pre/postemergence soybean; type: in vivo, Glycine max
Method in brief: as §1

sugar beet = experiment: Test B pre/postemergence sugar beet; type: in vivo, Beta vulgaris
Method in brief: as §1

wheat = experiment: Test B pre/postemergence wheat; type: in vivo, Triticum aestivum
Method in brief: as §1

purple nutsedge = experiment: Test B pre/postemergence purple nutsedge; type: in vivo, Cyperus rotundus
Method in brief: as §1

rice = experiment: Test B flood test rice; type: in vivo, Oryza sativa
Method in brief: (§2)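 Read-out is a visual response score from 0 (no effect) to 10 (complete control), assigned by comparison with untreated controls. Treatment was applied at the 2-leaf stage, and plants stayed in the greenhouse for twelve to sixteen days before scoring.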

smallflower flatsedge = experiment: Test B flood test smallflower flatsedge; type: in vivo, Cyperus difformis
Method in brief: as §2

duck salad = experiment: Test B flood test duck salad; type: in vivo, Heteranthera limosa
Method in brief: as §2

bamyardgrass = experiment: Test B flood test barnyardgrass; type: in vivo, Echinochloa crus-galli
Method in brief: as §2

[1] = Postemergence, Rate 62 g/ha, scale 0 to 10, 0 is no effect, 10 is complete control
[2] = Postemergence, Rate 250 g/ha, scale 0 to 10, 0 no effect, 10 complete control
[3] = Preemergence, Rate 62 g/ha, scale 0 to 10 (0 no effect, 10 complete control)
[4] = Preemergence, Rate 125 g/ha, scale 0 to 10 (0 no effect, 10 complete control)
[5] = Preemergence, Rate 250 g/ha, scale of 0 to 10 where 0 is no effect and 10 is complete control
[6] = Preemergence, Rate 500 g/ha, scale 0 (no effect) to 10 (complete control)
[7] = Rate 125 g/ha, Postemergence, scale 0 to 10, 0 no effect, 10 complete control
[8] = Rate 500 g/ha, Postemergence, scale 0 to 10, 0 no effect, 10 complete control
[9] = Rate 125 g/ha, Postemergence section (flood test species), scale 0 to 10, 0 no effect, 10 complete control
[10] = Rate 250 g/ha, headed Pre-emergence (flood test species), scale 0 to 10 (0 no effect, 10 complete control)
[11] = Rate 500 g/ha, headed Pre-emergence (flood test species), scale 0 to 10 (0 no effect, 10 complete control)
[12] = Rate 500 g/ha, listed under Postemergence (flood test species), scale 0 to 10, 0 no effect, 10 complete control
[13] = Rate 1000 g/ha, Pre-emergence (as headed), scale 0 to 10
[14] = Rate 2000 g/ha, Pre-emergence (as headed), scale 0 to 10
[15] = flood test, listed under Postemergence, Rate 250 g/ha, scale 0 to 10, 0 no effect, 10 complete control

CC(C)N(C(=O)n1oc(=O)n(Cc2ccccc2)c1=O)c1ccc(F)cc1 [Compound 78]
7: Blackgrass plant response rating (blackgrass; [8]) | Crabgrass plant response rating (crabgrass; [3]) | Sugarbeets plant response rating (sugar beet; [8]) | S. Flatsedge plant response rating (smallflower flatsedge; [14]) | Barnyardgrass plant response rating (bamyardgrass; [12])
4: Plant response rating, Blackgrass (blackgrass; [4]) | Plant response rating, Blackgrass (blackgrass; [5]) | B. signalgrass plant response rating (surinam grass; [2]) | Giant foxtail plant response rating (giant foxtail; [8]) | Rape plant response rating (rape; [8]) | Soybean plant response rating (soybean; [8]) | Sugarbeets plant response rating (sugar beet; [2]) | Sugarbeets plant response rating (sugar beet; [7]) | S. Flatsedge plant response rating (smallflower flatsedge; [12])
5: Plant response rating, B. signalgrass (surinam grass; [5]) | Crabgrass plant response rating (crabgrass; [2]) | Plant response rating, Rape (rape; [5]) | Rape plant response rating (rape; [6]) | Plant response rating, Sugarbeets (sugar beet; [5]) | Sugarbeets plant response rating (sugar beet; [6])
3: Blackgrass plant response rating (blackgrass; [2]) | Blackgrass plant response rating (blackgrass; [7]) | Cocklebur plant response rating (cocklebur; [8]) | Giant foxtail plant response rating (giant foxtail; [2]) | Giant foxtail plant response rating (giant foxtail; [7]) | Redroot pigweed plant response rating (pigweed; [2]) | Redroot pigweed plant response rating (pigweed; [7]) | Plant response rating, Wheat (wheat; [5]) | Wheat plant response rating (wheat; [6]) | Barnyardgrass plant response rating (bamyardgrass; Rate 2000 g/ha, Pre-emergence (as headed), scale 0 to 10, 0 no effect, 10 complete control) | Barnyardgrass plant response rating (bamyardgrass; [15])
10: Crabgrass plant response rating (crabgrass; [6])
1: Plant response rating, B. signalgrass (surinam grass; [4]) | Soybean plant response rating (soybean; [1]) | Soybean plant response rating (soybean; [7])
0: Blackgrass plant response rating (blackgrass; [1]) | B. signalgrass plant response rating (surinam grass; [1]) | B. signalgrass plant response rating (surinam grass; [3]) | B. signalgrass plant response rating (surinam grass; [7]) | Cocklebur plant response rating (cocklebur; [3]) | Plant response rating, Cocklebur (cocklebur; [4]) | Plant response rating, Cocklebur (cocklebur; [5]) | Cocklebur plant response rating (cocklebur; [6]) | Corn plant response rating (corn; [1]) | Corn plant response rating (corn; [2]) | Corn plant response rating (corn; [3]) | Plant response rating, Corn (corn; [4]) | Plant response rating, Corn (corn; [5]) | Corn plant response rating (corn; [6]) | Corn plant response rating (corn; [7]) | Corn plant response rating (corn; [8]) | Crabgrass plant response rating (crabgrass; [1]) | Giant foxtail plant response rating (giant foxtail; [1]) | Redroot pigweed plant response rating (pigweed; [3]) | Plant response rating, Redroot pigweed (pigweed; [4]) | Rape plant response rating (rape; [1]) | Rape plant response rating (rape; [3]) | Plant response rating, Rape (rape; [4]) | Rape plant response rating (rape; [7]) | Soybean plant response rating (soybean; [3]) | Plant response rating, Soybean (soybean; [4]) | Plant response rating, Soybean (soybean; [5]) | Soybean plant response rating (soybean; [6]) | Sugarbeets plant response rating (sugar beet; [3]) | Plant response rating, Sugarbeets (sugar beet; [4]) | Wheat plant response rating (wheat; [1]) | Wheat plant response rating (wheat; [2]) | Wheat plant response rating (wheat; [3]) | Plant response rating, Wheat (wheat; [4]) | Wheat plant response rating (wheat; [7]) | Wheat plant response rating (wheat; [8]) | Nutsedge plant response rating (purple nutsedge; [1]) | Nutsedge plant response rating (purple nutsedge; [2]) | Nutsedge plant response rating (purple nutsedge; [3]) | Plant response rating, Nutsedge (purple nutsedge; [4]) | Plant response rating, Nutsedge (purple nutsedge; [5]) | Nutsedge plant response rating (purple nutsedge; [6]) | Nutsedge plant response rating (purple nutsedge; [7]) | Nutsedge plant response rating (purple nutsedge; [8]) | Rice plant response rating (rice; [1]) | Rice plant response rating (rice; [9]) | Rice plant response rating (rice; [10]) | Plant response rating, Rice (rice; [11]) | Rice plant response rating (rice; [13]) | Rice plant response rating (rice; [14]) | Rice plant response rating (rice; [15]) | S. Flatsedge plant response rating (smallflower flatsedge; [1]) | S. Flatsedge plant response rating (smallflower flatsedge; Pre-emergence, Rate 1000 g/ha, scale 0 to 10 (0 no effect, 10 complete control)) | S. Flatsedge plant response rating (smallflower flatsedge; [9]) | S. Flatsedge plant response rating (smallflower flatsedge; [10]) | Plant response rating, S. Flatsedge (smallflower flatsedge; [11]) | S. Flatsedge plant response rating (smallflower flatsedge; [15]) | Ducksalad plant response rating (duck salad; [1]) | Ducksalad plant response rating (duck salad; [9]) | Ducksalad plant response rating (duck salad; [10]) | Plant response rating, Ducksalad (duck salad; [11]) | Ducksalad plant response rating (duck salad; [12]) | Ducksalad plant response rating (duck salad; [13]) | Ducksalad plant response rating (duck salad; [14]) | Ducksalad plant response rating (duck salad; [15]) | Barnyardgrass plant response rating (bamyardgrass; [1]) | Barnyardgrass plant response rating (bamyardgrass; [9]) | Barnyardgrass plant response rating (bamyardgrass; [10]) | Plant response rating, Barnyardgrass (bamyardgrass; [11]) | Barnyardgrass plant response rating (bamyardgrass; [13])
8: Giant foxtail plant response rating (giant foxtail; [3]) | Plant response rating, Giant foxtail (giant foxtail; [4])
2: Blackgrass plant response rating (blackgrass; [3]) | Cocklebur plant response rating (cocklebur; [2]) | Cocklebur plant response rating (cocklebur; [7]) | Crabgrass plant response rating (crabgrass; [7]) | Redroot pigweed plant response rating (pigweed; [1]) | Rape plant response rating (rape; [2]) | Soybean plant response rating (soybean; [2]) | Sugarbeets plant response rating (sugar beet; [1]) | Rice plant response rating (rice; [12])
6: Blackgrass plant response rating (blackgrass; [6]) | B. signalgrass plant response rating (surinam grass; Rate 500 g/ha, Postemergence, scale of 0 to 10 where 0 is no effect and 10 is complete control) | Plant response rating, Redroot pigweed (pigweed; [5]) | Redroot pigweed plant response rating (pigweed; [6]) | Redroot pigweed plant response rating (pigweed; [8])
9: B. signalgrass plant response rating (surinam grass; [6]) | Plant response rating, Crabgrass (crabgrass; [4]) | Plant response rating, Crabgrass (crabgrass; [5]) | Crabgrass plant response rating (crabgrass; [8]) | Plant response rating, Giant foxtail (giant foxtail; [5]) | Giant foxtail plant response rating (giant foxtail; [6])
